Results on 21 molecules are retold here after ChEMBL document CHEMBL1136712, “Oxyguanidines: application to non-peptidic phenyl-based thrombin inhibitors” (Bioorg Med Chem Lett, 2003).

Data set [1] addresses Prothrombin (Homo sapiens, UniProt P00734). As to the kind of experiment: Inhibitory activity against alpha-human thrombin.
The species entered for data set [2] is Mus musculus. As to the kind of experiment: In vitro metabolic potential in mouse liver microsomes. The class given is ADME.
Data set [3] concerns the target T1, Neutrophil elastase (Homo sapiens, UniProt P08246).
T1 sequence (P08246 whole entry): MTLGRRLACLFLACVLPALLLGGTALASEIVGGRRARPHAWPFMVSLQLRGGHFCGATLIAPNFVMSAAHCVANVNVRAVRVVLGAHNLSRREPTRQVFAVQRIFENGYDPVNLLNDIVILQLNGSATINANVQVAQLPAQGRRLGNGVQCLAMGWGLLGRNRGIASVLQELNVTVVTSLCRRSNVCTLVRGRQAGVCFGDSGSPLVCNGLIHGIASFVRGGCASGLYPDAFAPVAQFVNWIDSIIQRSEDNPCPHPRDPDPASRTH
Briefly: In vitro inhibitory activity against serine protease Elastase.

Data set [4] addresses Serine protease 1 (Homo sapiens, UniProt P07477). As to the kind of experiment: In vitro inhibitory activity against serine protease Trypsin.
Data set [5] can be described thus: Disassociation constant was determined. The format is ADME.
The species named for data set [6] is Rattus norvegicus. Briefly: In vitro metabolic potential in rat liver microsomes. The format is ADME.
Data set [7] has as its target Coagulation factor X (Homo sapiens, UniProt P00742). As to the kind of experiment: In vitro inhibitory activity against serine protease FXa.
A short description of data set [8]: In vitro metabolic potential in human liver microsomes. The class given is ADME, Microsome.
A short description of data set [9]: Plasma clearance rate by iv administration in dog at a dose of 6 mg/kg. The class given is ADME, organism-based, Canis lupus familiaris. Details: dose 6 mg/kg, route intravenous.
Data set [10] addresses Chymotrypsinogen B (Homo sapiens, UniProt P17538). Briefly: In vitro inhibitory activity against serine protease Chymotrypsin.
The target in data set [11] is Plasminogen (Homo sapiens, UniProt P00747). As to the kind of experiment: In vitro inhibitory activity against serine protease Plasmin.
Data set [12] in a line: Half life period by iv administration in dog at a dose of 6 mg/kg. The class given is ADME, organism-based, Canis lupus familiaris. The arrangement: dose 6 mg/kg, route intravenous. To be noted: in vivo.
The species named for data set [13] is Canis familiaris. Briefly: In vitro metabolic potential in dog liver microsomes. The format is ADME, Canis lupus familiaris.
Data set [14] in a line: Oral bioavailability in dog. Particulars: in vivo. The class given is ADME, organism-based, Canis lupus familiaris.
The species named for data set [15] is Homo sapiens. Briefly: The apparent permeability coefficient (Papp) was quantitated in the human Caco-2 monolayer assay. The format is functional.

Plasminogen, sequence (P00747 97-580 limits assumed): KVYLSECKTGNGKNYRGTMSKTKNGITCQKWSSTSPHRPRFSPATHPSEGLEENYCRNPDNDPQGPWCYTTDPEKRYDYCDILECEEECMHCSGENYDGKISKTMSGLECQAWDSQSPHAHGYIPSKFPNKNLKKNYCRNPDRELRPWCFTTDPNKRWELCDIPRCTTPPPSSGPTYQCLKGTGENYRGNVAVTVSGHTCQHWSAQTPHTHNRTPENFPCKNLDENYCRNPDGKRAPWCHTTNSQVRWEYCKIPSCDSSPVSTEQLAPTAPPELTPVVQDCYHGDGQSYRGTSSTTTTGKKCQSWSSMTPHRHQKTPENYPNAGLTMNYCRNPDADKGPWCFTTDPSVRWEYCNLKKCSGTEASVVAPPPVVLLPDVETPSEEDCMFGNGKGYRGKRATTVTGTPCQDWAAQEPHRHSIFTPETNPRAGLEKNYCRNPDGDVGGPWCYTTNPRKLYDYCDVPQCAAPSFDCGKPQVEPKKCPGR
Plasminogen, sequence (P00747 581-810 limits assumed): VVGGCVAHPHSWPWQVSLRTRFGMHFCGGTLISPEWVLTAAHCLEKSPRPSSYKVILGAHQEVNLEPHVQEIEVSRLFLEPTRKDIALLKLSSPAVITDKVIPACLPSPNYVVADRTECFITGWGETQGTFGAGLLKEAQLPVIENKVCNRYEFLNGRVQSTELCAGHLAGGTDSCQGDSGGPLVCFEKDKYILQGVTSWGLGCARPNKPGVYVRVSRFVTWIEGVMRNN
Serine protease 1, sequence (P07477 whole entry): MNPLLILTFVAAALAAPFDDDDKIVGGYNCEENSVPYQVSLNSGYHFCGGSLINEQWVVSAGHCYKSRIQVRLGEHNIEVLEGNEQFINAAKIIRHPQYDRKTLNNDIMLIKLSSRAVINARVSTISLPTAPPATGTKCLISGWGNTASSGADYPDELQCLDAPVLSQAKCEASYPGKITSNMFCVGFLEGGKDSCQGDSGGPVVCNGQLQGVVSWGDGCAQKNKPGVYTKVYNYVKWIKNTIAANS
Chymotrypsinogen B, sequence (P17538 34-164 limits assumed, other chains not shown): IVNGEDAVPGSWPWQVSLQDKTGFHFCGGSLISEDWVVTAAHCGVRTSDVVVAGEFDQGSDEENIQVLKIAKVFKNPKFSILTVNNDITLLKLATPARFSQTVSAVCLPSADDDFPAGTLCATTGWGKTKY
Chymotrypsinogen B, sequence (P17538 167-263 limits assumed, other chains not shown): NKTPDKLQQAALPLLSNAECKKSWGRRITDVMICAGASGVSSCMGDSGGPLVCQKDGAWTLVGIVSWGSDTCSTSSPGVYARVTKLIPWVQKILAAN
Coagulation factor X, sequence (P00742 41-179 limits assumed): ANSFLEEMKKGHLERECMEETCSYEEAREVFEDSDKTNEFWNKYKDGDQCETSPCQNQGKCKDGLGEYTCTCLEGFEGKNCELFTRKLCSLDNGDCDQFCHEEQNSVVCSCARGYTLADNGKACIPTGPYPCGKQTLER
Coagulation factor X, sequence (P00742 235-488 limits assumed): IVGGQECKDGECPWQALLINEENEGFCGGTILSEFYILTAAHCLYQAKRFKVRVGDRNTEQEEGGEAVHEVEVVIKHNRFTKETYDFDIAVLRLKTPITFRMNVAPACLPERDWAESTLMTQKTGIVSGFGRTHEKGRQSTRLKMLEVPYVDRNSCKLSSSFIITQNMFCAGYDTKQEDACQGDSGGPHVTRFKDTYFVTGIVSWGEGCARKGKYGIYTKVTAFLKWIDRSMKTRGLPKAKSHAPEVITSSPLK

For the molecule `Cc1cc(OCCCON=C(N)N)cc(OS(=O)(=O)c2cccc3c2NCCC3)c1`, the Ki in data set [1] is 31 nM.
Still for that read-out and setting: the figure for `CS(=O)(=O)c1ccccc1S(=O)(=O)Oc1cc(F)cc(OCC2(CON=C(N)N)CC2)c1` is 49.3 nM.
Still for that read-out and setting: the figure for `Cc1cc(OCCCONC(=N)N)cc(OS(=O)(=O)c2cccc3cccnc23)c1` is 6.7 nM; for `Cc1cc(OCC(O)CON=C(N)N)cc(OS(=O)(=O)c2ccccc2S(C)(=O)=O)c1` (stereo not drawn) it is 137 nM.
Still for that read-out and setting: the figure for `Cc1cc(OCCCON=C(N)N)cc(OS(=O)(=O)c2cccc(S(C)(=O)=O)c2)c1` is 204 nM; for `COc1cc(OCCCONC(=N)N)cc(OS(=O)(=O)c2ccccc2S(C)(=O)=O)c1` it is 34.6 nM.
Turning to `Cc1cc(OCCCONC(=N)N)cc(OS(=O)(=O)c2ccccc2C#N)c1`, the Ki in data set [1] turned out to be 9.9 nM. Against the preceding molecule, the Ki is about 3.5-fold lower.
In the case of `Cc1cc(OCC(F)CON=C(N)N)cc(OS(=O)(=O)c2ccccc2S(C)(=O)=O)c1` (stereo not drawn), the affinity in data set [1] corresponds to a Ki of 114 nM.
As to `COc1ccccc1S(=O)(=O)Oc1cc(C)cc(OCCCONC(=N)N)c1`, the Ki in data set [1] was 6.7 nM.
`CS(=O)(=O)c1ccccc1S(=O)(=O)Oc1cc(Cl)cc(OCCCON=C(N)N)c1` gave an inhibitory constant (Ki) in data set [1] of 39.4 nM.
In turn, `C=C(CONC(=N)N)COc1cc(C)cc(OS(=O)(=O)c2ccccc2S(C)(=O)=O)c1` displayed an inhibition constant Ki in data set [1] of 32.4 nM. This Ki and that of the molecule before are within 1.5-fold of each other.
For `Cc1cc(OCCCONC(=N)N)cc(OS(=O)(=O)c2ccc3c(c2)S(=O)(=O)CC3)c1`, the Ki in [1] was 102 nM.
As for `Cc1cc(OCCCONC(=N)N)cc(OS(=O)(=O)c2ccccc2S(=O)(=O)c2ccccc2)c1`, the Ki in [1] stood at 4.8 nM. Compared with the last molecule, the Ki is about 21-fold lower.
With `Cc1cc(OCC(F)(F)CON=C(N)N)cc(OS(=O)(=O)c2ccccc2S(C)(=O)=O)c1`, the inhibitory constant (Ki) in data set [1] amounted to 364 nM.
With `Cc1cc(OCCCONC(=N)N)cc(OS(=O)(=O)c2ccccc2S(C)(=O)=O)c1`, the Microsomal stability in data set [2] is 30.8 pg min-1 (mg of protein)-1; in [6], 69.5 pg min-1 (mg of protein)-1; in [8], 50.4 pg min-1 (mg of protein)-1; in data set [13], 21.1 pg min-1 (mg of protein)-1. For the same molecule, the Ki in data set [3], in [4], in data set [7], in data set [10] and in data set [11] was more than 22000 nM throughout. The pKa in data set [5] was found to be 7.05. In data set [9], this molecule displayed a clearance of 6.9 mL/min/kg. In addition, the half-life in data set [12] is 7.3 h. Moreover, the bioavailability in data set [14] is 95%.
As to `CS(=O)(=O)c1ccccc1S(=O)(=O)Oc1cc(CO)cc(OCC2(CON=C(N)N)CC2)c1`, in data set [1], the inhibition constant Ki was 403 nM.
In data set [1], `Cc1cc(OCCCON=C(N)N)cc(OS(=O)(=O)c2cccc3cnccc23)c1` had a Ki of 13.2 nM.
`Cc1cc(OCCCON=C(N)N)cc(OS(=O)(=O)c2ccccc2S(C)(=O)=O)c1`: in data set [15], the apparent permeability (Papp) was 2.4 ×10⁻⁶ cm/s.
In turn, `Cc1cc(OCCCONC(=N)N)cc(OS(=O)(=O)c2ccc(S(C)(=O)=O)cc2S(C)(=O)=O)c1` returned a Ki in data set [1] of 749 nM. This counts as sub-micromolar.
On the same count and under the same terms, then `CCc1cc(OCCCONC(=N)N)cc(OS(=O)(=O)c2ccccc2S(C)(=O)=O)c1`, with 29.7 nM.
On the same count and under the same terms, then `Cc1cc(OCCCON=C(N)N)cc(OS(=O)(=O)c2ccccc2N)c1`, with 86.6 nM.
